system: HBV; assay: Anti-HBV activity in vitro: extracellular HBV DNA quantified by direct qPCR in HepAD38 cells; format: cell-based; conditions: Hepatitis B virus, doxycycline-free medium, 96 hours at 37°C, reported as EC50 threshold value, read-out: HBV inh EC50
Description: HepAD38 cell line (Ladner et al., Antimicrob Agents Chemother, 1997, 41, 1715-20) was used for HBV inhibition assays. HepAD38 is a subclone, derived from Hepatoblastoma cell line HepG2 (ATCC® Number: HB-8065™), that expresses HBV genome under the transcriptional control of a tetracycline-responsive promoter in a TET-OFF system: addition of tetracycline (TET) or doxycycline suppresses HBV replication, while its removal switches on the process allowing HBV viral particles release in the cell supernatant. HepAD38 cell line is maintained in DMEM/F12, supplemented with 10% of fetal bovine serum, 1% of glutamine, 1% of penicillin/streptomycin, 0.4 mg/ml G418 and 0,3 ug/ml tetracycline. For the HBV inhibition assay, doxycycline-free medium is used in order to allow virion production.
HBV inhibition activity in vitro was performed in 96 multiwell plates. During the initial (primary) screening, compounds were first tested in triplicates at concentrations of 0.02 µM, 0.1µM, 0.5µM and 1µM. For selected compounds, an 8-point dose-response curve was obtained using 1:2 serial dilutions (starting from 0.01µM, 0.1µM, 0.4µM or 5 µM, depending on the degree of inhibition observed during the primary screening). From the dose-response curves, half maximal effective concentration (EC50) could be calculated (see also below).
In more detail, compounds - typically dissolved in DMSO stock solutions - were diluted to 2x the final desired concentration in 100 µl of the above medium (without doxycycline) and plated in three replicates in the 96-well plates. […]
Plates were then incubated 96 hours at 37°C and then subjected to cell viability assays and extracellular HBV quantification, in order to evaluate both the cytotoxic potential and the antiviral activity of compounds. Cytotoxicity was assessed by a commercial fluorescence assay that measures the metabolic activity of cells, directly related to cell viability (Cell Titer Blue, Promega). Anti-HBV activity was evaluated by quantification of extracellular HBV DNA with direct qPCR. […]

| Structure (SMILES) | EC50 |
| --- | --- |
| Cc1nnc(C(=O)N2CCC3(COc4c(cn(C)c4C(=O)Nc4ccc(F)c(F)c4)S(=O)(=O)N3)C2)o1 (stereo not drawn) [Example E2, N-(3,4-difluorophenyl)-7'-methyl-1-(5-methyl-1,3,4-oxadiazole-2-carbonyl)-2'H,4'H,7'H-spiro[pyrrolidine-3,3'-pyrrolo[3,4-b][1,4,5]oxathiazepine]-6'-carboxamide 1',1'-dioxide] | < 500 nM |
| C[C@H](NC(=O)C(=O)N1CCC2(COc3c(c(Cl)n(C)c3C(=O)Nc3ccc(F)c(F)c3)S(=O)(=O)N2)C1)C(F)(F)F (stereo in doubt) [Example E3, 8'-chloro-N-(3,4-difluorophenyl)-7'-methyl-1-(2-oxo-2-(((S)-1,1,1-trifluoropropan-2-yl)amino)acetyl)-2'H,4'H,7'H-spiro[pyrrolidine-3,3'-pyrrolo[3,4-b][1,4,5]oxathiazepine]-6'-carboxamide 1',1'-dioxide] | < 500 nM |
| C[C@H](NC(=O)C(=O)N1CCC2(COc3c(cn(C)c3C(=O)Nc3ccc(F)c(F)c3)S(=O)(=O)N2)C1)C(F)(F)F (stereo in doubt) [Example E1, N-(3,4-difluorophenyl)-7'-methyl-1-(2-oxo-2-(((S)-1,1,1-trifluoropropan-2-yl)amino)acetyl)-2'H,4'H,7'H-spiro[pyrrolidine-3,3'-pyrrolo[3,4-b][1,4,5]oxathiazepine]-6'-carboxamide 1',1'-dioxide] | < 500 nM |
